Reference: US20140057798A1, “PREDICTION OF DRUG SENSITIVITY OF LUNG TUMORS BASED ON MOLECULAR GENETIC SIGNATURES” (NESTEC S.A., priority 2011, published 2014)
“Also recorded” adds a separate entry of the source. Read-outs that look alike come from different tables or passages of the source.

Assays:
[1] = system: H1975 cells; experiment: Inhibition of tumor cell line growth (CellTiter-Glo), H1975; assay type: cell-based, human
[2] = system: H1650 cells; experiment: Inhibition of tumor cell line growth (CellTiter-Glo), H1650; assay type: cell-based, human; details: H1650, single inhibitor 0.01-10 μM, 5% FBS, 48 hours
[3] = system: H1993 cells; experiment: Inhibition of tumor cell line growth (CellTiter-Glo), H1993; assay type: cell-based, human; details: H1993, single inhibitor 0.01-10 μM, 5% FBS, 48 hours
[4] = system: c-Met pathway in H1993 cells; experiment: Inhibition of activated signaling pathways by kinase inhibitors (CEER assay), H1993 c-Met; assay type: cell-based, human; details: H1993, serum-starved overnight, 4-hour treatment, CEER assay (FIG. 2)
Description: (§1) The principal of the CEER™ assay is based on the capture of the target protein by a target-specific antibody printed in two dilutions on the surface of a microarray slide. […] Formation of this complex is initiated by the binding of the first detecting antibody, which is coupled to glucose oxidase (GO), to an epitope on the captured target protein that is different from the epitope recognized by the capture antibody, followed by the binding of a second detecting antibody, which is coupled to horseradish peroxidase (HRP), to a phosphorylated tyrosine (p-Tyr) residue on the target protein. […]
(§2) The capture antibodies against mouse IgG, human epidermal growth factor receptor 1 (Her1), human epidermal growth factor receptor 2 (Her2), human epidermal growth factor receptor 3 (Her3), human hepatocyte growth factor receptor (cMET), human insulin-like growth factor-1 receptor (IGF1R), human stem cell growth factor receptor (cKit), human phosphatidylinositol-3-kinase (PI3K), human Src homology 2 domain-containing protein (SHC) and human cytokeratin (CK), were printed in this order in 10 rows from top to bottom in each slide. […] The relative fluorescence value of the respective reagent blank was subtracted from each sample to give a relative fluorescence unit (RFU) according the number of cells' extract.

[5] = system: H358 cells; experiment: Inhibition of tumor cell line growth (CellTiter-Glo), H358; assay type: cell-based, human; details: H358, single inhibitor 0.01-10 μM, 5% FBS, 48 hours
[6] = system: H1993 cells; experiment: Anchorage-independent growth inhibition (soft agarose colonies), H1993; assay type: cell-based, human; details: H1993, 0.1 μM and 1 μM, two weeks, agar
Protocol: (§3) The plates were kept at 4° C. for 2 hr to solidify the cell-containing layer. The plates were then incubated at 37° C. in a CO2 incubator with 2 mL of medium containing various concentrations of the kinase inhibitor. The medium with the inhibitor was changed every 3 days.

[7] = system: H1734 cells; experiment: Anchorage-independent growth inhibition (soft agarose colonies), H1734; assay type: cell-based, human; details: H1734, 0.1 μM and 1 μM, two weeks, agar
[8] = system: H460 cells; experiment: Inhibition of tumor cell line growth (CellTiter-Glo), H460; assay type: cell-based, human; details: H460, single inhibitor 0.01-10 μM, 5% FBS, 48 hours
[9] = system: A549 cells; experiment: Inhibition of tumor cell line growth (CellTiter-Glo), A549; assay type: cell-based, human; details: A549, single inhibitor 0.01-10 μM, 5% FBS, 48 hours
[10] = system: H1734 cells; experiment: Inhibition of tumor cell line growth (CellTiter-Glo), H1734; details: H1734, single inhibitor 0.01-10 μM, 5% FBS, 48 hours
[11] = system: H460 cells; experiment: Anchorage-independent growth inhibition (soft agarose colonies), H460; assay type: cell-based, human; details: H460, 0.1 μM and 1 μM, two weeks, agar
Protocol: as §3

[12] = system: IGF-1R pathway in A549 cells; experiment: Inhibition of activated signaling pathways by kinase inhibitors (CEER assay), A549; assay type: cell-based, human; details: A549, serum-starved overnight, 4-hour treatment, CEER assay (FIG. 2)
Description: as §1, §2

[13] = system: H358 cells; experiment: Anchorage-independent growth inhibition (soft agarose colonies), H358; assay type: cell-based, human; details: H358, 0.1 μM and 1 μM, two weeks, agar
Protocol: as §3

[14] = system: HCC827 cells; experiment: Inhibition of tumor cell line growth (CellTiter-Glo), HCC827; assay type: cell-based, human
[15] = system: A549 cells; experiment: Anchorage-independent growth inhibition (soft agarose colonies), A549; assay type: cell-based, human; details: A549, 0.1 μM and 1 μM, two weeks, agar
Protocol: as §3

[16] = system: IGF-1R pathway in H460 cells; experiment: Inhibition of activated signaling pathways by kinase inhibitors (CEER assay), H460; assay type: cell-based, human; details: H460, serum-starved overnight, 4-hour treatment, CEER assay (FIG. 2)
Description: as §1, §2

[17] = system: Her1 and/or Her2 pathway in H1734 cells; details: H1734, serum-starved overnight, 4-hour treatment, CEER assay (FIG. 2)
Description: as §1, §2

[18] = system: eight human lung tumor cell lines; experiment: Inhibition of tumor cell growth, panel of lung tumor cell lines; assay type: cell-based
[19] = H1975, single inhibitor 0.01-10 μM, 5% FBS, 48 hours

Row | Structure (SMILES) | inhibition of cell proliferation [3] | inhibition of cell proliferation [5] | inhibition of cell proliferation [1, 19] | inhibition of cell proliferation [8] | inhibition of cell proliferation [9] | further results
1 | CN(C)C/C=C/C(=O)Nc1cc2c(Nc3ccc(F)c(Cl)c3)ncnc2cc1O[C@H]1CCOC1 [BIBW-2992] | only weakly |  |  |  |  | inhibition of cell proliferation [1]: potently inhibit the growth; also recorded: moderately inhibited; inhibition of cell proliferation [2]: inhibited
2 | C[C@@H](Oc1cc(-c2cnn(C3CCNCC3)c2)cnc1N)c1c(Cl)ccc(F)c1Cl [PF-2341066] | block its proliferation very effectively | not inhibited |  |  |  | blocking of c-Met pathway activation [4]: blocked; large colony formation, anchorage-independent growth [6]: inhibited
3 | O=C(NOC[C@H](O)CO)c1ccc(F)c(F)c1Nc1ccc(I)cc1F [PD-325901] | able to block the proliferation | not | weakly inhibited | not | not and weakly | proliferation of cell colony size, anchorage-independent growth [7]: potently blocked; inhibition of cell proliferation [10]: effective in blocking the growth
4 | Cc1cc(N2CCOCC2)cc2[nH]c(-c3c(NC[C@@H](O)c4cccc(Cl)c4)cc[nH]c3=O)nc12 [BMS-536924] |  | inhibit its proliferation more effectively | able to inhibit the growth | weakly inhibited | inhibited | reduction of cell colony size, anchorage-independent growth [11]: reduce cell colony size formation dose-dependently; blocking of activated IGF-1R pathway [12]: able to block; reduction of cell colony size, anchorage-independent growth [13]: reduce cell colony size formation dose-dependently; inhibition of cell proliferation ([14]; HCC827, single inhibitor 0.01-10 μM, 5% FBS, 48 hours): inhibition of proliferation; reduction of cell colony size, anchorage-independent growth [15]: reduce cell colony size formation dose-dependently; blocking of activated IGF-1R pathway [16]: able to block
5 | CS(=O)(=O)CCNCc1ccc(-c2ccc3ncnc(Nc4ccc(OCc5cccc(F)c5)c(Cl)c4)c3c2)o1 [Lapatinib] |  | weakly blocked | resistant |  |  | inhibition of cell proliferation [14]: able to inhibit the proliferation; blocking of Her1 and/or Her2 pathway activation [17]: activation blocked
6 | Cn1c(=O)n(-c2ccc(C(C)(C)C#N)cc2)c2c3cc(-c4cnc5ccccc5c4)ccc3ncc21 [BEZ-235] | only weakly |  | weakly inhibited | inhibited; also recorded: sensitive | inhibited; also recorded: sensitive | inhibition of tumor cell growth across the cell lines tested [18]: effectively inhibited tumor cell growth in most of the cell lines tested, except the H1993 and H1650 cells
7 | C#Cc1cccc(Nc2ncnc3cc(OCCOC)c(OCCOC)cc23)c1 [Erlotinib] |  |  | inhibited |  |  | inhibition of cell proliferation [10]: inhibited
